These are literature values, as cited in US8735408B2, “Solid forms of 3-(4-(aminomethyl)-1-(5-methyl-7H-pyrrolo[2,3-d]pyrimidin-4-yl)piperidine-4-carboxamido)phenyl dimethylcarbamate” (Lexicon Pharmaceuticals, Inc., priority 2010, dated 2014).

The conditions of the data set: models of ophthalmic disease; see US-2009-0264450-A1.

For the molecule `Cc1c[nH]c2ncnc(N3CCC(CN)(C(=O)Nc4cccc(OC(=O)N(C)C)c4)CC3)c12` [3-(4-(aminomethyl)-1-(5-methyl-7H-pyrrolo[2,3-d]pyrimidin-4-yl)piperidine-4-carboxamido)phenyl dimethylcarbamate], the “effect on intraocular pressure” value was “decrease intraocular pressure”.
